The subject of the test is Jurkat cell line. Briefly: PARP cellular chemopotentiation assay (MTS cell viability with and without TMZ). In kind it is cell-based. Conditions: ratio of EC50 for inhibition of cell viability without and with 100 μM TMZ; Jurkat cells, 96 hours of treatment. How it is done:
Potentiation Factor (PF50) Determination from PARP Cellular Chemopotentiation Assay
Jurkat cell line was maintained according to the supplier (American Type Culture Collection (Rockville, Md.)). Cells were seeded in 96-well tissue culture microplates at 10,000 cells per well and cultured for 24 hours prior to addition of compounds, TMZ (Temozolomide) or DMSO (dimethylsulfoxide) vehicle. After 96 hours of treatment, the conversion of MTS ([3-(4,5-dimethylthiazol-2-yl)-5-(3-carboxymethoxyphenyl)-2-(4-sulfophenyl)-2H-tetrazolium, inner salt], Promega, Madison, Wis.) by metabolically active cells was determined through measuring the OD490 nm with a Spectramax microplate reader (Molecular Devices, San Diego, Calif.). To generate concentration-response curves, cells were treated in duplicate with a range of serial compound dilutions (final DMSO concentration was 0.5%) in the absence or presence of 100 μM TMZ chemoreagent. The percentage of viable cells per well was calculated by correction for background and normalizing against DMSO-treated cells. EC50 values for inhibition of cell viability were calculated using XLfit4 MicroSoft Excel curve-fitting software. Chemopotentiation factor PF50 was calculated as the ratio of EC50 values of cells co-treated without and with TMZ, respectively.

The structures appear in SMILES notation. A value given as a limit tells only on which side of the number the result lay.

For `CCOC(=O)c1ccc(N2CCN(Cc3cnc4c(c3)NC(=O)[C@@H]3CCCN43)CC2)nc1` [Compound 6A, (S)-ethyl 6-(4-((6-oxo-5,6,6a,7,8,9-hexahydropyrido[3,2-e]pyrrolo[1,2-a]pyrazin-3-yl)methyl)piperazin-1-yl)nicotinate], the PF50 result is “≧0”.

As for `CCNC(=O)c1ccc(N2CCN(Cc3cnc4c(c3)NC(=O)[C@@H]3CCCN43)CC2)nc1` [Compound 7, (S)—N-ethyl-6-(4-((6-oxo-5,6,6a,7,8,9-hexahydropyrido[3,2-e]pyrrolo[1,2-a]pyrazin-3-yl)methyl)piperazin-1-yl)nicotinamide], the PF50 is >10.

For the compound `O=C(NC1CC1)c1ccc(N2CCN(Cc3cnc4c(c3)NC(=O)[C@@H]3CCCN43)CC2)nc1` [Compound 8, (S)—N-cyclopropyl-6-(4-((6-oxo-5,6,6a,7,8,9-hexahydropyrido[3,2-e]pyrrolo[1,2-a]pyrazin-3-yl)methyl)piperazin-1-yl)nicotinamide], the PF50 is listed as >10.

On to `CC(C)NC(=O)c1ccc(N2CCN(Cc3cnc4c(c3)NC(=O)[C@@H]3CCCN43)CC2)nc1` [Compound 9, (S)—N-isopropyl-6-(4-((6-oxo-5,6,6a,7,8,9-hexahydropyrido[3,2-e]pyrrolo[1,2-a]pyrazin-3-yl)methyl)piperazin-1-yl)nicotinamide], for which the PF50 result is reported as “≧0”.

`O=C1Nc2cc(CN3CCN(c4ccc(F)cc4F)CC3)cnc2N2CCC[C@@H]12` [Compound 15, (S)-3-((4-(2,4-difluorophenyl)piperazin-1-yl)methyl)-6a,7,8,9-tetrahydropyrido[3,2-e]pyrrolo[1,2-a]pyrazin-6(5H)-one]: the PF50 is recorded as >500.

For `N#Cc1ccc(N2CCN(Cc3cnc4c(c3)NC(=O)[C@@H]3CCCN43)CC2)c(F)c1F` [Compound 18, (S)-2,3-difluoro-4-(4-((6-oxo-5,6,6a,7,8,9-hexahydropyrido[3,2-e]pyrrolo[1,2-a]pyrazin-3-yl)methyl)piperazin-1-yl)benzonitrile], the PF50 is >10.

Regarding `N#Cc1c(F)cc(N2CCN(Cc3cnc4c(c3)NC(=O)[C@@H]3CCCN43)CC2)cc1F` [Compound 19, (S)-2,6-difluoro-4-(4-((6-oxo-5,6,6a,7,8,9-hexahydropyrido[3,2-e]pyrrolo[1,2-a]pyrazin-3-yl)methyl)piperazin-1-yl)benzonitrile], the PF50 entry is “≧0”.

In the case of `N#Cc1cc(F)c(N2CCN(Cc3cnc4c(c3)NC(=O)[C@@H]3CCCN43)CC2)c(F)c1` [Compound 20, (S)-3,5-difluoro-4-(4-((6-oxo-5,6,6a,7,8,9-hexahydropyrido[3,2-e]pyrrolo[1,2-a]pyrazin-3-yl)methyl)piperazin-1-yl)benzonitrile], the PF50 entry is given as “≧0”.

Consider `N#Cc1ncc(N2CCN(Cc3cnc4c(c3)NC(=O)[C@@H]3CCCN43)CC2)cc1F` [Compound 22, (S)-3-fluoro-5-(4-((6-oxo-5,6,6a,7,8,9-hexahydropyrido[3,2-e]pyrrolo[1,2-a]pyrazin-3-yl)methyl)piperazin-1-yl)picolinonitrile], for which the PF50 is given as >10.

Regarding `O=C1Nc2cc(CN3CCN(c4ccccc4)CC3)cnc2N2CCC[C@@H]12` [Compound 23, (S)-3-((4-phenylpiperazin-1-yl)methyl)-6a,7,8,9-tetrahydropyrido[3,2-e]pyrrolo[1,2-a]pyrazin-6(5H)-one], the PF50 entry is reported as “≧0”.

Regarding `CC(=O)c1ccc(N2CCN(Cc3cnc4c(c3)NC(=O)[C@@H]3CCCN43)CC2)cc1` [Compound 25, (S)-3-((4-(4-acetylphenyl)piperazin-1-yl)methyl)-6a,7,8,9-tetrahydropyrido[3,2-e]pyrrolo[1,2-a]pyrazin-6(5H)-one], the PF50 entry was “≧0”.

Consider `O=C1Nc2cc(CN3CCN(c4ccccn4)CC3)cnc2N2CCC[C@@H]12` [Compound 26, (S)-3-((4-(pyridin-2-yl)piperazin-1-yl)methyl)-6a,7,8,9-tetrahydropyrido[3,2-e]pyrrolo[1,2-a]pyrazin-6(5H)-one], for which the PF50 is on record as >10.

`COc1ccc(N2CCN(Cc3cnc4c(c3)NC(=O)[C@@H]3CCCN43)CC2)cc1` [Compound 31, (S)-3-((4-(4-methoxyphenyl)piperazin-1-yl)methyl)-6a,7,8,9-tetrahydropyrido[3,2-e]pyrrolo[1,2-a]pyrazin-6(5H)-one]: the PF50 result is “≧0”.

Regarding `Cc1ccc(N2CCN(Cc3cnc4c(c3)NC(=O)[C@@H]3CCCN43)CC2)cc1` [Compound 32, (S)-3-((4-p-tolylpiperazin-1-yl)methyl)-6a,7,8,9-tetrahydropyrido[3,2-e]pyrrolo[1,2-a]pyrazin-6(5H)-one], the PF50 entry is on record as “≧0”.

Regarding `O=C1Nc2cc(CN3CCN(c4cccc(O)c4)CC3)cnc2N2CCC[C@@H]12` [Compound 34, (S)-3-((4-(3-hydroxyphenyl)piperazin-1-yl)methyl)-6a,7,8,9-tetrahydropyrido[3,2-e]pyrrolo[1,2-a]pyrazin-6(5H)-one], the PF50 entry was “≧0”.

On to `O=C1Nc2cc(CN3CCN(c4ccc(O)cc4)CC3)cnc2N2CCC[C@@H]12` [Compound 35, (S)-3-((4-(4-hydroxyphenyl)piperazin-1-yl)methyl)-6a,7,8,9-tetrahydropyrido[3,2-e]pyrrolo[1,2-a]pyrazin-6(5H)-one], for which the PF50 entry was “≧0”.

`O=C1Nc2cc(CN3CCN(c4ccc(C(F)(F)F)cn4)CC3)cnc2N2CCC[C@@H]12` [Compound 36, (S)-3-((4-(5-(trifluoromethyl)pyridin-2-yl)piperazin-1-yl)methyl)-6a,7,8,9-tetrahydropyrido[3,2-e]pyrrolo[1,2-a]pyrazin-6(5H)-one]: the PF50 result is “≧0”.

As for `O=C1Nc2cc(CN3CCN(c4cccc(F)c4)CC3)cnc2N2CCC[C@@H]12` [Compound 38, (S)-3-((4-(3-fluorophenyl)piperazin-1-yl)methyl)-6a,7,8,9-tetrahydropyrido[3,2-e]pyrrolo[1,2-a]pyrazin-6(5H)-one], the PF50 entry was “≧0”.

Take `O=C1Nc2cc(CN3CCN(c4nc5ccccc5[nH]4)CC3)cnc2N2CCC[C@@H]12` [Compound 39, (S)-3-((4-(1H-benzo[d]imidazol-2-yl)piperazin-1-yl)methyl)-6a,7,8,9-tetrahydropyrido[3,2-e]pyrrolo[1,2-a]pyrazin-6(5H)-one]: the PF50 result is “≧0”.

For `O=C1Nc2cc(CN3CCN(c4ccc(I)cc4)CC3)cnc2N2CCC[C@@H]12` [Compound 40, (S)-3-((4-(4-iodophenyl)piperazin-1-yl)methyl)-6a,7,8,9-tetrahydropyrido[3,2-e]pyrrolo[1,2-a]pyrazin-6(5H)-one], the PF50 is >10.

As for `O=C1Nc2cc(CN3CCN(c4nc5ccccc5o4)CC3)cnc2N2CCC[C@@H]12` [Compound 41, (S)-3-((4-(benzo[d]oxazol-2-yl)piperazin-1-yl)methyl)-6a,7,8,9-tetrahydropyrido[3,2-e]pyrrolo[1,2-a]pyrazin-6(5H)-one], the PF50 entry is given as “≧0”.

`O=C1Nc2cc(CN3CCN(c4cc(F)cc(F)c4)CC3)cnc2N2CCC[C@@H]12` [Compound 46, (S)-3-((4-(3,5-difluorophenyl)piperazin-1-yl)methyl)-6a,7,8,9-tetrahydropyrido[3,2-e]pyrrolo[1,2-a]pyrazin-6(5H)-one]: the PF50 entry is “≧0”.

As for `O=C1Nc2cc(CN3CCN(c4ccc(C(F)(F)F)cc4)CC3)cnc2N2CCC[C@@H]12` [Compound 48, (S)-3-((4-(4-(trifluoromethyl)phenyl)piperazin-1-yl)methyl)-6a,7,8,9-tetrahydropyrido[3,2-e]pyrrolo[1,2-a]pyrazin-6(5H)-one], the PF50 entry is given as “≧0”.

The record behind these values is US9187497B2, “Substituted pyrido[3,2-e]pyrrolo[1,2-a]pyrazines as inhibitors of poly(ADP-ribose)polymerase (PARP)” (Takeda Phamaceutical Company Limited, priority 2009, dated 2015).
